Data published in patent US9480754B2, “Phospholipid ether analogs as cancer-targeting drug vehicles” (Cellectar Biosciences, Inc., priority 2014, dated 2016).

Columns and labels:
[1] = system: Breast 4T1; assay: 124I-CLR1404 tumor uptake, model 35; assay type: in vivo; conditions: Endogenous mouse (orthotopic), Adenocarcinoma
Method: (§1) All described animal studies were performed according to animal protocols approved by the Institutional Animal Care and Use Committee. Female athymic nude mice (Hsd:Athymic Nude-Foxnlnu or Crl:NU-Foxnlnu, Charles River Laboratories) about 4 to 5 weeks of age, 16 to 18 g (n=6), were used for human tumor xenograft studies. Mice were anesthetized with isoflurane and injected subcutaneously with viable tumor cells in 100 μl of Dulbecco's PBS (or, for glioma cells, […] of PBS) into the right flank. Inoculum sizes were 1×10^6 (for renal, ovarian, glioma, pancreatic, prostate, and NSCLC models), […] (for colorectal and uterine models), or 3×10^6 (breast).
(§2) Radioiodinated ^124I-CLR1404 was tested in subcutaneous and orthotopic xenografts of 60 different spontaneous, transgenic, human, and rodent malignant cell lines and tumor types. […] Representative examples are of both human (FIG. 5A-5I) and rodent (FIG. 5J-M) tumors.

[2] = system: Prostate LNCap; assay: 124I-CLR1404 tumor uptake, model 28; assay type: in vivo; conditions: Mouse, Adenocarcinoma
Method: as §1, §2

[3] = system: Colon-51; assay: 124I-CLR1404 tumor uptake, model 6; assay type: in vivo; conditions: SCID mouse, Adenocarcinoma
Method: as §1, §2

[4] = system: Neuroblastoma NB1691; assay: 124I-CLR1404 tumor uptake, model 15; assay type: in vivo; conditions: Nude mouse
Method: as §1, §2

[5] = system: Ovarian Ovcar-3; assay: 124I-CLR1404 tumor uptake, model 19; assay type: in vivo; conditions: Nude mouse, Adenocarcinoma
Method: as §1, §2

[6] = system: Retinoblastoma; assay: 124I-CLR1404 tumor uptake, model 51; assay type: in vivo; conditions: Endogenous mouse, Blastoma
Method: as §1, §2

[7] = system: Mammary alveolar hyperplasia; assay: 124I-CLR1404 tumor uptake, model 57; assay type: in vivo; conditions: Endogenous mouse, Hyperplasia (benign)
Method: as §1, §2

[8] = system: Pirc rat colon adenoma; assay: 124I-CLR1404 tumor uptake, model 60; assay type: in vivo
Method: as §1, §2

[9] = system: Renal cell ACHN; assay: 124I-CLR1404 tumor uptake, model 24; assay type: in vivo; conditions: Nude mouse (orthotopic), Adenocarcinoma
Method: as §1, §2

[10] = system: Prostate PC-3; assay: 124I-CLR1404 tumor uptake, model 1; assay type: in vivo; conditions: SCID mouse, Adenocarcinoma
Method: as §1, §2

[11] = system: Adrenal H-295; assay: 124I-CLR1404 tumor uptake, model 4; assay type: in vivo; conditions: SCID mouse, Adenocarcinoma
Method: as §1, §2

[12] = system: Neuroblastoma Lan5; assay: 124I-CLR1404 tumor uptake, model 17; assay type: in vivo; conditions: Nude mouse
Method: as §1, §2

[13] = system: Multiple myeloma MM.1S; assay: 124I-CLR1404 tumor uptake, model 13; assay type: in vivo; conditions: Nude mouse
Method: as §1, §2

[14] = system: Triple negative breast MDA-MB231; assay: 124I-CLR1404 tumor uptake, model 31; assay type: in vivo; conditions: Nude mouse, Adenocarcinoma
Method: as §1, §2

[15] = system: Glioblastoma U87; assay: 124I-CLR1404 tumor uptake, model 11; assay type: in vivo; conditions: Nude mouse and NOD-SCID, Glioma
Method: as §1, §2

[16] = system: Glioblastoma 105 GSC; assay: 124I-CLR1404 tumor uptake, model 34; assay type: in vivo; conditions: NOD-SCID mouse (orthotopic), Glioma
Method: as §1, §2

[17] = system: Colon DLD1; assay: 124I-CLR1404 tumor uptake, model 8; assay type: in vivo; conditions: SCID mouse, Adenocarcinoma
Method: as §1, §2

[18] = system: Pancreatic c-myc; assay: 124I-CLR1404 tumor uptake, model 52; assay type: in vivo; conditions: Endogenous mouse, Adenocarcinoma
Method: as §1, §2

[19] = system: Head and neck SCC6; assay: 124I-CLR1404 tumor uptake, model 27; assay type: in vivo; conditions: Nude mouse, Squamous cell carcinoma
Method: as §1, §2

[20] = system: Pancreatic BXPC3; assay: 124I-CLR1404 tumor uptake, model 20; assay type: in vivo; conditions: Nude mouse, Adenocarcinoma
Method: as §1, §2

[21] = system: Cervical-HPV; assay: 124I-CLR1404 tumor uptake, model 54; assay type: in vivo; conditions: Endogenous mouse, Adenocarcinoma
Method: as §1, §2

[22] = system: Glioma CNS1; assay: 124I-CLR1404 tumor uptake, model 49; assay type: in vivo; conditions: Rat xenograft
Method: as §1, §2

[23] = system: Ovarian HTB-77; assay: 124I-CLR1404 tumor uptake, model 18; assay type: in vivo; conditions: Nude mouse, Adenocarcinoma
Method: as §1, §2

[24] = system: Esophageal; assay: 124I-CLR1404 tumor uptake, model 55; assay type: in vivo; conditions: Endogenous Mouse, Adenocarcinoma
Method: as §1, §2

[25] = system: Colon CT26; assay: 124I-CLR1404 tumor uptake, model 40; assay type: in vivo; conditions: SCID mouse, Adenocarcinoma
Method: as §1, §2

[26] = system: Hepatoma Hep-G2; assay: 124I-CLR1404 tumor uptake, model 59; assay type: in vivo; conditions: Nude mouse, Carcinoma
Method: as §1, §2

[27] = system: Bladder SV40; assay: 124I-CLR1404 tumor uptake, model 36; assay type: in vivo; conditions: Mouse (orthotopic), Adenocarcinoma
Method: as §1, §2

[28] = system: Glioma L9; assay: 124I-CLR1404 tumor uptake, model 47; assay type: in vivo; conditions: Rat xenograft
Method: as §1, §2

[29] = system: Melanoma A-375; assay: 124I-CLR1404 tumor uptake, model 12; assay type: in vivo; conditions: Nude mouse
Method: as §1, §2

[30] = system: Colon LS180; assay: 124I-CLR1404 tumor uptake, model 7; assay type: in vivo; conditions: SCID mouse, Adenocarcinoma
Method: as §1, §2

[31] = system: Walker256; assay: 124I-CLR1404 tumor uptake, model 38; assay type: in vivo; conditions: Rat, Carcinosarcoma
Method: as §1, §2

[32] = system: Mammary AC; assay: 124I-CLR1404 tumor uptake, model 45; assay type: in vivo; conditions: ApcMin/+ mouse, Adenocarcinoma
Method: as §1, §2

[33] = system: Colon Pirc; assay: 124I-CLR1404 tumor uptake, model 41; assay type: in vivo; conditions: Autochthonous Pirc rat, Adenocarcinoma
Method: as §1, §2

[34] = system: Colon LS-180; assay: 124I-CLR1404 tumor uptake, model 10; assay type: in vivo; conditions: Nude mouse, Adenocarcinoma
Method: as §1, §2

[35] = system: Breast MCF-7; assay: 124I-CLR1404 tumor uptake, model 30; assay type: in vivo; conditions: Rat, Adenocarcinoma
Method: as §1, §2

[36] = system: Sarcoma (Meth-A); assay: 124I-CLR1404 tumor uptake, model 25; assay type: in vivo; conditions: Nude mouse, Fibrosarcoma
Method: as §1, §2

[37] = system: Glioblastoma 22 GSC; assay: 124I-CLR1404 tumor uptake, model 33; assay type: in vivo; conditions: NOD-SCID mouse (orthotopic), Glioma
Method: as §1, §2

[38] = system: Glioma RG2; assay: 124I-CLR1404 tumor uptake, model 50; assay type: in vivo; conditions: Rat xenograft
Method: as §1, §2

[39] = system: Hepatocellular carcinoma; assay: 124I-CLR1404 tumor uptake, model 46; assay type: in vivo; conditions: Endogenous mouse, Adenocarcinoma
Method: as §1, §2

[40] = system: Pancreatic Kras; assay: 124I-CLR1404 tumor uptake, model 53; assay type: in vivo; conditions: Endogenous mouse, Adenocarcinoma
Method: as §1, §2

[41] = system: Colon HT-29; assay: 124I-CLR1404 tumor uptake, model 9; assay type: in vivo; conditions: SCID mouse, Adenocarcinoma
Method: as §1, §2

[42] = system: Renal cell Caki-2; assay: 124I-CLR1404 tumor uptake, model 23; assay type: in vivo; conditions: Nude mouse (orthotopic), Clear cell carcinoma
Method: as §1, §2

[43] = system: Neuroblastoma CHLA-20; assay: 124I-CLR1404 tumor uptake, model 16; assay type: in vivo; conditions: Nude mouse
Method: as §1, §2

[44] = system: xenograft, orthotopic and transgenic cancer and cancer stem cell derived animal models; assay: CLR1404 tumor selectivity across 60 tumor models; assay type: in vivo, rodent; conditions: 60 different malignant cell lines and tumor types
Method: as §1, §2

[45] = system: Head and neck SCC1; assay: 124I-CLR1404 tumor uptake, model 26; assay type: in vivo; conditions: Nude mouse, Squamous cell carcinoma
Method: as §1, §2

C[N+](C)(C)CCOP(=O)([O-])OCCCCCCCCCCCCCCCCCCc1ccc(I)cc1 [^124I-CLR1404]
Uptake [1]: Yes (Tumor uptake was considered positive if tumor to muscle ratio was greater than 3.)
Uptake [2]: Yes (Tumor uptake was considered positive if tumor to muscle ratio was greater than 3.)
Uptake [3]: Yes (Tumor uptake was considered positive if tumor to muscle ratio was greater than 3.)
Uptake [4]: Yes (Tumor uptake was considered positive if tumor to muscle ratio was greater than 3.)
Uptake [5]: Yes (Tumor uptake was considered positive if tumor to muscle ratio was greater than 3.)
Uptake [6]: Yes (Tumor uptake was considered positive if tumor to muscle ratio was greater than 3.)
Uptake [7]: No (Tumor:muscle ratio less than or equal to 2 was considered negative.)
Uptake [8]: No (Tumor:muscle ratio less than or equal to 2 was considered negative.)
Uptake [9]: Yes (Tumor uptake was considered positive if tumor to muscle ratio was greater than 3.)
Uptake [10]: Yes (Tumor uptake was considered positive if tumor to muscle ratio was greater than 3.)
Uptake [11]: Yes (Tumor uptake was considered positive if tumor to muscle ratio was greater than 3.)
Uptake [12]: Yes (Tumor uptake was considered positive if tumor to muscle ratio was greater than 3.)
Uptake [13]: Yes (Tumor uptake was considered positive if tumor to muscle ratio was greater than 3.)
Uptake [14]: Yes (Tumor uptake was considered positive if tumor to muscle ratio was greater than 3.)
Uptake [15]: Yes (Tumor uptake was considered positive if tumor to muscle ratio was greater than 3.)
Uptake [16]: Yes (Tumor uptake was considered positive if tumor to muscle ratio was greater than 3.)
Uptake [17]: Yes (Tumor uptake was considered positive if tumor to muscle ratio was greater than 3.)
Uptake [18]: Yes (Tumor uptake was considered positive if tumor to muscle ratio was greater than 3.)
Uptake [19]: Yes (Tumor uptake was considered positive if tumor to muscle ratio was greater than 3.)
Uptake [20]: Yes (Tumor uptake was considered positive if tumor to muscle ratio was greater than 3.)
Uptake [21]: Yes (Tumor uptake was considered positive if tumor to muscle ratio was greater than 3.)
Uptake [22]: Yes (Tumor uptake was considered positive if tumor to muscle ratio was greater than 3.)
Uptake [23]: Yes (Tumor uptake was considered positive if tumor to muscle ratio was greater than 3.)
Uptake [24]: Yes (Tumor uptake was considered positive if tumor to muscle ratio was greater than 3.)
Uptake [25]: Yes (Tumor uptake was considered positive if tumor to muscle ratio was greater than 3.)
Uptake [26]: No (Tumor:muscle ratio less than or equal to 2 was considered negative.)
Uptake [27]: Yes (Tumor uptake was considered positive if tumor to muscle ratio was greater than 3.)
Uptake [28]: Yes (Tumor uptake was considered positive if tumor to muscle ratio was greater than 3.)
Uptake [29]: Yes (Tumor uptake was considered positive if tumor to muscle ratio was greater than 3.)
Uptake [30]: Yes (Tumor uptake was considered positive if tumor to muscle ratio was greater than 3.)
Uptake [31]: Yes (Tumor uptake was considered positive if tumor to muscle ratio was greater than 3.)
Uptake [32]: Yes (Tumor uptake was considered positive if tumor to muscle ratio was greater than 3.)
Uptake [33]: Yes (Tumor uptake was considered positive if tumor to muscle ratio was greater than 3.)
Uptake [34]: Yes (Tumor uptake was considered positive if tumor to muscle ratio was greater than 3.)
Uptake [35]: Yes (Tumor uptake was considered positive if tumor to muscle ratio was greater than 3.)
Uptake [36]: Yes (Tumor uptake was considered positive if tumor to muscle ratio was greater than 3.)
Uptake [37]: Yes (Tumor uptake was considered positive if tumor to muscle ratio was greater than 3.)
Uptake [38]: Yes (Tumor uptake was considered positive if tumor to muscle ratio was greater than 3.)
Uptake [39]: Yes (Tumor uptake was considered positive if tumor to muscle ratio was greater than 3.)
Uptake [40]: Yes (Tumor uptake was considered positive if tumor to muscle ratio was greater than 3.)
Uptake [41]: Yes (Tumor uptake was considered positive if tumor to muscle ratio was greater than 3.)
Uptake [42]: Yes (Tumor uptake was considered positive if tumor to muscle ratio was greater than 3.)
Uptake [43]: Yes (Tumor uptake was considered positive if tumor to muscle ratio was greater than 3.)
tumor localization after intravenous administration [44]: localized in almost all primary and metastatic malignant tumors
Uptake [45]: Yes (Tumor uptake was considered positive if tumor to muscle ratio was greater than 3.)
